In patent US11135193B2, “Composition containing monoacetyldiacylglycerol compound as active ingredient for preventing or treating asthma” (Enzychem Lifesciences Corporation, priority 2013, dated 2021):
Where two headings read alike, the source gives them in different places. Marks after values point to notes of the source that are not given here.

Tests used:
EL-4 cells [1] = assay: Cytotoxicity of monoacetyldiacylglycerol compounds in EL-4 cells (CCK-8 cell viability); settings: 24 hours
Method: (§2) EL-4 cells that are mouse T lymphoma cells were suspended in 10% fetal bovine serum-containing RPMI medium (Gibco) at a concentration of 5×10^4 cells/ml, and 100 μl of the cell suspension was seeded into each well of a 96-well plate and cultured for 12 hours. Next, the cell culture was treated with monoacetyldiacylglycerol (MADG) compounds at the concentrations shown in Table 1 below, and was then additionally cultured for 24 hours. Next, according to the instruction provided in a CCK-8 kit (Dojindo) capable of counting cells, 10 μl of CCK-8 solution was added to the kit and allowed to react for 30 minutes to 4 hours, and then the absorbance (OD) at 570 nm was measured. In equation 1, the negative control group indicates a cell culture treated with 0.2% DMSO. […] Cell viability (%)=[(OD 570 nm value of MADC-treated group)/(OD 570 nm value of negative control group)]×100 Equation 1

IL-4 mRNA = assay: Inhibition of PMA-induced expression of IL-4 mRNA in EL-4 cells (PCR); format: cell-based, mouse; settings: 20 μg/mL, PMA 1 ng/mL; for Inhibition (%) of IL-4 mRNA expression: compared to PMA-treated group
Method: Based on the results of Example 1, each of the monoacetyldiacylglycerol compounds was added to EL-4 cells at a concentration of 20 μg/mL, and the effect thereof on the inhibition of PMA-induced expression of IL-4 mRNA in the EL-4 cells was measured. Specifically, the expression level of IL-4 mRNA induced by PMA (1 ng/mL) was measured using real-time polymerase chain reaction (real-time PCR) and quantitative real time polymerase chain reaction (qPCR). For cell preparation, EL-4 cells were seeded into a 6-well plate at a concentration of 1×10^6 cells/well and cultured for 12 hours, after which the cells were treated with each of the monoacetyldiacylglycerol compounds at a concentration of 20 μg/mL for 1 hour and treated with PMA at a concentration of 1 ng/ml, followed by culture for 12 hours. Total RNA was extracted from the cells using Trizol B (Invitrogen, USA) and quantified, and then cDNA was synthesized from the total RNA using an Omniscript RT kit (Qiagen, GmbH, Hilden, Germany). The synthesized cDNA as a template was mixed with each of the IL-4 and GAPDH primers shown in Table 2 below and was subjected to PCR using a PCR mix (PCR Master Mix, Bioneer, Korea) under the following conditions: denaturation at 94° C. for 5 minutes; and then 30 cycles, each consisting of 30 sec at 95° C., 45 sec at 60° C., and 45 sec at 72° C.; followed by enzyme inactivation at 72° C. for 10 minutes. The results of measuring the percent inhibition of expression of IL-4 mRNA in EL-4 cells as described above are shown in Table 3 below. The designation of each of the samples shown in Table 3 below is as described with respect to Table 1 above.

[2] = test system: ovalbumin-induced asthma Balb/c mice; assay: Inflammatory cell count in bronchoalveolar lavage fluid, ovalbumin-induced asthma model; format: in vivo, mouse; settings: BALF; 30 mg/kg oral
Method: (§1) 6-week-old female SPF (specific pathogen-free) Balb/c mice (average weight: 20 g) were purchased from Samtako (Korea). The animals were sufficiently fed with solid feed (antibiotic-free, Samyang Feed Co.) and water until the start point of the experiment, and acclimated at a temperature of 22±2° C., a humidity of 55±15%, and a 12-hr light/12-hr dark cycle for 1 week, and then used in experiments. After 1 week of the acclimation period as described above, the mice were sensitized by intraperitoneal administration of a suspension of 2 mg of aluminum oxide (A8222, Sigma-Aldrich, MO, USA) and 20 μg of ovalbumin (A5503, Sigma-Aldrich) in 200 μl of phosphate buffered saline at two-week intervals. During a period from day 21 to day 23 after the first intraperitoneal administration of ovalbumin, 1% ovalbumin was inhaled into the mice for 30 minutes using an ultrasonic nebulizer (NE-U12, Omron Corp., Japan). At 24 hours after the last ovalbumin challenge, the airway hyperresponsiveness of the mice was measured, and after 48 hours, the mice were anesthetized by intraperitoneal administration of Pentobarbital (50 mg/kg, Entobal, Hanil, Korea). Then, blood was collected through the saphenous vein, and the mice were subjected to tracheostomy. Next, each of the mice was subjected to bronchoalveolar lavage with a total of 1.4 ml of PBS to collect an analytical sample. […] The drug and the sample were administered orally during a period from day 18 to day 23 after the first ovalbumin […] (FIG. 1). Seven mice were used per group.
An increase in the number of eosinophils is one of the major features of asthma. Thus, in order to measure the number of eosinophils, the following experiment was performed. The bronchoalveolar lavage fluid from each mouse was stained with trypan blue immediately after collection, and the number of total cells (excluding dead cells) was calculated using a hemocytometer.

[3] = test system: serum IgE and ovalbumin-specific IgE; assay: Serum IgE and ovalbumin-specific IgE (ELISA), ovalbumin-induced asthma model; format: in vivo, mouse; settings: 30 mg/kg oral
Method: as §1
The blood collected through the saphenous vein was incubated at room temperature for 30 minutes, and then centrifuged (3000 rpm, 15 min) to obtain serum. For measurement of serum IgE and ovalbumin-specific IgE, ELISA was used. IgE was measured using commercially available IgE (Biolegend Ins., USA). For measurement of ovalbumin-specific IgE, in a 96-well flat bottom ELISA plate, ovalbumin was dissolved in 0.1 M NaHCO3 buffer (pH 8.3) at a concentration of 20 μg/mL and incubated at 4° C. for 16 hours. Next, PBS containing 1% bovine serum albumin (BSA) was added to suppress nonspecific reactions. The serum sample was diluted at 1:400, allowed to react at room temperature for 2 hours, and then washed with PBS containing 0.05% Tween 20. Horseradish peroxidase (HRP)-conjugated goat […] polyclonal A was diluted 4000-fold and allowed to react at room temperature for 1 hour, and then color development was performed using 3,3′5,5′-tetramethylbenzidine substrate.

[4] = test system: ovalbumin-induced asthma Balb/c mice; assay: Airway hyperresponsiveness (Pehn, plethysmography) in ovalbumin-induced asthma model; format: in vivo, mouse; settings: 30 mg/kg oral
Method: as §1
To measure airway hyperresponsiveness that is one of the major features of asthma, one chamber plethysmography (All Medicus, Korea) was used. The degree of airway resistance was evaluated by measuring enhanced pause (Pehn). For measurement of Pehn, the basis value was measured in a normal breathing state, and then PBS was inhaled for 3 minutes using an ultrasonic nebulizer, after which the Pehn value was measured for 3 minutes.

[5] = test system: interleukins (IL-4, IL-5 and IL-13); assay: Th2 cytokines in bronchoalveolar lavage fluid (ELISA), ovalbumin-induced asthma model; format: in vivo, mouse; settings: BALF; 30 mg/kg oral
Method: as §1
The production of interleukins (IL-4, IL-5 and IL-13) in the bronchoalveolar lavage fluid isolated from each mouse was measured using a commercially available enzyme-linked immunosorbent assay (ELISA) kit (R&D System, USA). The analysis of each cytokine was performed according to the manufacturer's instruction, and the absorbance at 450 nm was measured using an ELISA reader (Molecular Devices, USA).

EL-4 cells [6] = settings: mouse, 24 h
Method: as §2

CCCCC/C=C\C/C=C\CCCCCCCC(=O)OCC(COC(C)=O)OC(=O)CCCCCCCCCCCCCCC (stereo not drawn) [LPAG, 1-linoeoyl-2-palmitoyl-3-acetylglycerol]
EL-4 cell viability (%, mean ± SD) (EL-4 cells [1]; 5 μg/ml): 99.67 ± 1.15% | EL-4 cell viability (%, mean ± SD) (EL-4 cells [1]; 10 μg/ml): 98.91 ± 0.50% | EL-4 cell viability (%, mean ± SD) (EL-4 cells [1]; 20 μg/ml): 99.13 ± 1.18% | Expression level of IL-4 mRNA (percentage relative to PMA-treated group) (IL-4 mRNA): 61.11 ± 27.49% | Inhibition (%) of IL-4 mRNA expression (IL-4 mRNA): 38.89%

CCCCC/C=C\C/C=C\CCCCCCCC(=O)OCC(COC(C)=O)OC(=O)CCCCCCCCCCCCCCCCC (stereo not drawn) [LSAG, 1-linoeoyl-2-stearoyl-3-acetylglycerol]
EL-4 cell viability (%, mean ± SD) (EL-4 cells [1]; 5 μg/ml): 103.82 ± 1.80% | EL-4 cell viability (%, mean ± SD) (EL-4 cells [1]; 10 μg/ml): 101.85 ± 1.00% | EL-4 cell viability (%, mean ± SD) (EL-4 cells [1]; 20 μg/ml): 98.15 ± 1.82% | Expression level of IL-4 mRNA (percentage relative to PMA-treated group) (IL-4 mRNA): 41.62 ± 17.61% | Inhibition (%) of IL-4 mRNA expression (IL-4 mRNA): 58.38%

CC(C)(O)c1ccccc1CC[C@@H](SCC1(CC(=O)O)CC1)c1cccc(/C=C/c2ccc3ccc(Cl)cc3n2)c1 [Mon, montelukast, reference compound]
Inflammatory cell number, Eosinophils [2]: 54 ± 17.8* 10^5 per mouse | Inflammatory cell number, Lymphocytes [2]: 11 ± 10.6 10^5 per mouse | Inflammatory cell number, Macrophages [2]: 99 ± 21.4* 10^5 per mouse | Inflammatory cell number, Neutrophils [2]: 14 ± 5.2 10^5 per mouse | Inflammatory cell number, Total cells [2]: 179 ± 44.0* 10^5 per mouse | IgE [3]: 2.03 ± 0.49 µg/mL | OVA specific IgE [3]: 198.15 ± 42.65 µg/mL | Pehn value ([4]; methacholine 0 mg/mL): 0.590 ± 0.07 | Pehn value ([4]; methacholine 12.5 mg/mL): 1.261 ± 0.29 | Pehn value ([4]; methacholine 25 mg/mL): 3.046 ± 0.61 | Pehn value ([4]; methacholine 50 mg/mL): 4.182 ± 0.99 | Th2 cytokines, IL-4 [5]: 18.69 ± 3.00 pg/mL | Th2 cytokines, IL-5 [5]: 22.74 ± 3.59 pg/mL | Th2 cytokines, IL-13 [5]: 81.42 ± 25.59 pg/mL

CCCCCCCC/C=C\CCCCCCCC(=O)OCC(COC(C)=O)OC(=O)CCCCCCCCCCCCCCC (stereo not drawn) [OPAG, 1-oleoyl-2-palmitoyl-3-acetylglycerol]
EL-4 cell viability (%, mean ± SD) (EL-4 cells [6]; 5 μg/ml): 98.04 ± 0.94% | EL-4 cell viability (%, mean ± SD) (EL-4 cells [6]; 10 μg/ml): 98.91 ± 1.68% | EL-4 cell viability (%, mean ± SD) (EL-4 cells [6]; 20 μg/ml): 99.56 ± 2.86%

CCCCCCCC/C=C\CCCCCCCC(=O)OCC(COC(C)=O)OC(=O)CCCCCCCCCCCCCCCCC (stereo not drawn) [OSAG, 1-oleoyl-2-stearoyl-3-acetylglycerol]
EL-4 cell viability (%, mean ± SD) (EL-4 cells [6]; 5 μg/ml): 102.62 ± 2.18% | EL-4 cell viability (%, mean ± SD) (EL-4 cells [6]; 10 μg/ml): 100.98 ± 2.37% | EL-4 cell viability (%, mean ± SD) (EL-4 cells [6]; 20 μg/ml): 100.22 ± 0.68%

CCCCCCCC/C=C\CCCCCCCC(=O)OC(COC(C)=O)COC(=O)CCCCCCCCCCCCCCC (stereo not drawn) [POAG, 1-palmitoyl-2-oleoyl-3-acetylglycerol]
EL-4 cell viability (%, mean ± SD) (EL-4 cells [6]; 5 μg/ml): 106.94 ± 2.69% | EL-4 cell viability (%, mean ± SD) (EL-4 cells [6]; 10 μg/ml): 106:39 ±1.19% | EL-4 cell viability (%, mean ± SD) (EL-4 cells [6]; 20 μg/ml): 98.90 ± 1.16%

CCCCCCCCCCCCCCCC(=O)OCC(COC(C)=O)OC(=O)CCCCCCCCCCCCCCC (stereo not drawn) [PPAG, 1-palmitoyl-2-palmitoyl-3-acetylglycerol]
EL-4 cell viability (%, mean ± SD) (EL-4 cells [6]; 5 μg/ml): 106.28 ± 1.39% | EL-4 cell viability (%, mean ± SD) (EL-4 cells [6]; 10 μg/ml): 105.84 ± 1.38% | EL-4 cell viability (%, mean ± SD) (EL-4 cells [6]; 20 μg/ml): 96.59 ± 0.69%

CCCCCCCCCCCCCCCCCC(=O)OC(COC(C)=O)COC(=O)CCCCCCCCCCCCCCC (stereo not drawn) [PSAG, 1-palmitoyl-2-stearoyl-3-acetylglycerol]
EL-4 cell viability (%, mean ± SD) (EL-4 cells [6]; 5 μg/ml): 98.46 ± 0.33% | EL-4 cell viability (%, mean ± SD) (EL-4 cells [6]; 10 μg/ml): 100.66 ± 1.25% | EL-4 cell viability (%, mean ± SD) (EL-4 cells [6]; 20 μg/ml): 103.30 ± 2.15%
